Patent publication US20110281869A1, “TETRAHYDROISOQUINOLINES AS ANTIMALARIAL AGENTS” (priority 2008, published 2011)

System: P. falciparum K1
Experiment: Plasmodium falciparum in vitro assay ([3H] hypoxanthine incorporation)
Assay type: cell-based
Settings: Plasmodium falciparum; erythrocytic stages, strain K1 resistant to chloroquine and pyrimethamine, human red cells; read-out: IC50 (nM) on K1
Method: In vitro antimalarial activity: Plasmodium falciparum in vitro assay In vitro activity against erythrocytic stages of P. falciparum is determined using a [^3H] hypoxanthine incorporation assay. One strain resistant to chloroquine and pyrimethamine (P. falciparum K1) is used in the assays, and all test compounds are compared for activity with the standard drugs chloroquine (sigma C6628) and artemisinin (sigma-36, 159-3). Compounds are diluted in DMSO to 1 mM and added to parasite cultures incubated in RPMI 1640 medium without hypoxanthine, supplemented with HEPES (5.94 g/L), NaHCO3 (2.1 g/L), neomycin (100 U/mL), Albumax (5 g/L) and washed human red cells at 2.5% hematocrit (0.3% parasitaemia). Seven serial doubling dilutions of each drug are prepared in 96-well microtitre plates and incubated in a humidifying atmosphere at 37° C.; 4% CO2, 3% O2, 93% N2.
After 48 h, 50 μl of [^3H] hypoxanthine (0.5 μCi) is added to each well of a plate. The plates are incubated for a further 24 h under the same conditions. The plates are then harvested with a Betaplate cell harvester (Wallac) and washed with distilled water. The dried filters are inserted into a plastic foil with 10 mL of scintillation fluid, and counted in a Betaplate liquid scintillation counter. IC50 values are calculated from sigmoidal inhibition curves using Microsoft Excel.

Row | Structure (SMILES) | IC50 [nM]
1 | O=C([C@H](Cc1ccccc1)N(Cc1ccc(-c2cnccn2)cc1)C(=O)C=Cc1ccc(Cl)nc1)N1CCc2ccccc2C1 [Example 111, (S)—N-[1-Benzyl-2-(3,4-dihydro-1H-isoquinolin-2-yl)-2-oxo-ethyl]-3-(6-chloro-pyridin-3-yl)-N-(4-pyrazin-2-yl-benzyl)-acrylamide] | 35
2 | COc1ncc(C=CC(=O)N(Cc2ccc(-c3cnccn3)cc2)[C@@H](Cc2ccccc2)C(=O)N2CCc3ccccc3C2)cn1 [Example 114, (S)—N-[1-Benzyl-2-(3,4-dihydro-1H-isoquinolin-2-yl)-2-oxo-ethyl]-3-(2-methoxy-pyrimidin-5-yl)-N-(4-pyrazin-2-yl-benzyl)-acrylamide] | 63
3 | Cn1cc(C=CC(=O)N(Cc2ccc(-c3cnccn3)cc2)[C@@H](Cc2ccccc2)C(=O)N2CCc3ccccc3C2)cn1 [Example 116, (S)—N-[1-Benzyl-2-(3,4-dihydro-1H-isoquinolin-2-yl)-2-oxo-ethyl]-3-(1-methyl-1H-pyrazol-4-yl)-N-(4-pyrazin-2-yl-benzyl)-acrylamide] | 67
4 | Cc1nn(C)c(C)c1C=CC(=O)N(Cc1ccc(-c2cnccn2)cc1)[C@@H](Cc1ccccc1)C(=O)N1CCc2ccccc2C1 [Example 119, (S)—N-[1-Benzyl-2-(3,4-dihydro-1H-isoquinolin-2-yl)-2-oxo-ethyl]-N-(4-pyrazin-2-yl-benzyl)-3-(1,3,5-trimethyl-1H-pyrazol-4-yl)-acrylamide] | 5
5 | Cc1nc(C)c(C=CC(=O)N(Cc2ccc(-c3cccnn3)cc2)[C@@H](Cc2ccccc2)C(=O)N2CCc3ccccc3C2)s1 [Example 145, (S)—N-[1-Benzyl-2-(3,4-dihydro-1H-isoquinolin-2-yl)-2-oxo-ethyl]-3-(2,4-dimethyl-thiazol-5-yl)-N-(4-pyridazin-3-yl-benzyl)-acrylamide] | 13
6 | Cc1nn(C)c(C)c1C=CC(=O)N(Cc1ccc(-n2ccnn2)cc1)[C@@H](Cc1ccccc1)C(=O)N1CCc2ccccc2C1 [Example 157, (S)—N-[1-Benzyl-2-(3,4-dihydro-1H-isoquinolin-2-yl)-2-oxo-ethyl]-N-(4-[1,2,3]-triazol-1-yl-benzyl)-3-(1,3,5-trimethyl-1H-pyrazol-4-yl)-acrylamide] | 2
7 | O=C([C@H](Cc1ccccc1)N(Cc1ccc(-n2cncn2)cc1)C(=O)C=Cc1ccc(Cl)nc1)N1CCc2ccccc2C1 [Example 167, (S)—N-[1-Benzyl-2-(3,4-dihydro-1H-isoquinolin-2-yl)-2-oxo-ethyl]-3-(6-chloro-pyridin-3-yl)-N-(4-[1,2,4]-triazol-1-yl-benzyl)-acrylamide] | 8
8 | Cn1cc(C=CC(=O)N(Cc2ccc(-n3cncn3)cc2)[C@@H](Cc2ccccc2)C(=O)N2CCc3ccccc3C2)cn1 [Example 172, (S)—N-[1-Benzyl-2-(3,4-dihydro-1H-isoquinolin-2-yl)-2-oxo-ethyl]-3-(1-methyl-1H-pyrazol-4-yl)-N-(4-[1,2,4]-triazol-1-yl-benzyl)-acrylamide] | 25
9 | Cc1ncsc1C=CC(=O)N(Cc1ccc(-n2cncn2)cc1)[C@@H](Cc1ccccc1)C(=O)N1CCc2ccccc2C1 [Example 178, (S)—N-[1-Benzyl-2-(3,4-dihydro-1H-isoquinolin-2-yl)-2-oxo-ethyl]-3-(4-methyl-thiazol-5-yl)-N-(4-[1,2,4]-triazol-1-yl-benzyl)-acrylamide] | 28
10 | O=C([C@H](Cc1ccccc1)N(Cc1ccc(-c2nccs2)cc1)C(=O)C=Cc1ccc(C(F)(F)F)cc1)N1CCc2ccccc2C1 [Example 199, (S)—N-[1-Benzyl-2-(3,4-dihydro-1H-isoquinolin-2-yl)-2-oxo-ethyl]-N-(4-thiazol-2-yl-benzyl)-3-(4-trifluoromethyl-phenyl)-acrylamide] | 4
11 | CN1CCN(c2ccc(CN(C(=O)C=Cc3ccc(C(F)(F)F)cn3)[C@@H](Cc3ccccc3)C(=O)N3CCc4ccccc4C3)cc2)CC1 [Example 211, (S)—N-[1-Benzyl-2-(3,4-dihydro-1H-isoquinolin-2-yl)-2-oxo-ethyl]-N-[4-(4-methyl-piperazin-1-yl)-benzyl]-3-(5-trifluoromethyl-pyridin-2-yl)-acrylamide] | 82
12 | Cc1ccc(C=CC(=O)N(Cc2ccc(N3CCOCC3)cc2)[C@@H](Cc2ccccc2)C(=O)N2CCc3ccccc3C2)cn1 [Example 218, (S)—N-[1-Benzyl-2-(3,4-dihydro-1H-isoquinolin-2-yl)-2-oxo-ethyl]-3-(6-methyl-pyridin-3-yl)-N-(4-morpholin-4-yl-benzyl)-acrylamide] | 31
13 | COc1ccc(C=CC(=O)N(Cc2ccc(N3CCOCC3)cc2)[C@@H](Cc2ccccc2)C(=O)N2CCc3ccccc3C2)cn1 [Example 220, (S)—N-[1-Benzyl-2-(3,4-dihydro-1H-isoquinolin-2-yl)-2-oxo-ethyl]-3-(6-methoxy-pyridin-3-yl)-N-(4-morpholin-4-yl-benzyl)-acrylamide] | 10
14 | Cc1noc(C)c1C=CC(=O)N(Cc1ccc(N2CCOCC2)cc1)[C@@H](Cc1ccccc1)C(=O)N1CCc2ccccc2C1 [Example 224, (S)—N-[1-Benzyl-2-(3,4-dihydro-1H-isoquinolin-2-yl)-2-oxo-ethyl]-3-(3,5-dimethyl-isoxazol-4-yl)-N-(4-morpholin-4-yl-benzyl)-acrylamide] | 18
15 | O=C([C@H](Cc1ccccc1)N(Cc1ccc(-c2cncnc2)cc1)C(=O)C=Cc1ccc(Cl)nc1)N1CCc2ccccc2C1 [Example 228, (S)—N-[1-Benzyl-2-(3,4-dihydro-1H-isoquinolin-2-yl)-2-oxo-ethyl]-3-(6-chloro-pyridin-3-yl)-N-(4-pyrimidin-5-yl-benzyl)-acrylamide] | 8.5
16 | Cc1noc(C)c1C=CC(=O)N(Cc1ccc(-c2cncnc2)cc1)[C@@H](Cc1ccccc1)C(=O)N1CCc2ccccc2C1 [Example 235, (S)—N-[1-Benzyl-2-(3,4-dihydro-1H-isoquinolin-2-yl)-2-oxo-ethyl]-3-(3,5-dimethyl-isoxazol-4-yl)-N-(4-pyrimidin-5-yl-benzyl)-acrylamide] | 26
17 | COc1ccc(C=CC(=O)N(Cc2ccc(-c3ccncc3)cc2)[C@@H](Cc2ccccc2)C(=O)N2CCc3ccccc3C2)nn1 [Example 239, (S)—N-[1-Benzyl-2-(3,4-dihydro-1H-isoquinolin-2-yl)-2-oxo-ethyl]-3-(6-methoxy-pyridazin-3-yl)-N-(4-pyridin-4-yl-benzyl)-acrylamide] | 9
18 | Cc1noc(C)c1C=CC(=O)N(Cc1ccc(-c2ccncc2)cc1)[C@@H](Cc1ccccc1)C(=O)N1CCc2ccccc2C1 [Example 241, (S)—N-[1-Benzyl-2-(3,4-dihydro-1H-isoquinolin-2-yl)-2-oxo-ethyl]-3-(3,5-dimethyl-isoxazol-4-yl)-N-(4-pyridin-4-yl-benzyl)-acrylamide] | 5
19 | Cn1ccc(C=CC(=O)N(Cc2ccc(-c3ccncc3)cc2)[C@@H](Cc2ccccc2)C(=O)N2CCc3ccccc3C2)n1 [Example 243, (S)—N-[1-Benzyl-2-(3,4-dihydro-1H-isoquinolin-2-yl)-2-oxo-ethyl]-3-(1-methyl-1H-pyrazol-3-yl)-N-(4-pyridin-4-yl-benzyl)-acrylamide] | < 7.8
20 | Cc1ncc(C=CC(=O)N(Cc2ccc(-c3ccncc3)cc2)[C@@H](Cc2ccccc2)C(=O)N2CCc3ccccc3C2)n1C [Example 246, (S)—N-[1-Benzyl-2-(3,4-dihydro-1H-isoquinolin-2-yl)-2-oxo-ethyl]-3-(2,3-dimethyl-3H-imidazol-4-yl)-N-(4-pyridin-4-yl-benzyl)-acrylamide] | 17
